A word on the inhibition: it is the relative decrease from the control value, in per cent. Broadly, the half-life is the time in which the quantity being followed falls by half. The term EC50 denotes the concentration that produces a half-maximal response. For orientation: IC50 means the concentration that gives 50% inhibition. As a reminder, the Papp is the rate of passage across a membrane or cell layer, normalised by area and donor concentration. Low readings indicate slow passage, high ones fast passage.

Where two headings read alike, the source gives them in different places.

Series [1] concerns MC65 cells. The series can be described thus: Neuroprotection assay in MC65 cells (−TC, MTT). The conditions noted are these: for EC50: read-out: EC50 for neuroprotection of MC65 cells. As for the experimental part: MC65 cells were washed twice with PBS, resuspended in Opti-MEM, and seeded in 96-well plates (4×10^4 cells/well). Indicated compounds were then added, and cells were incubated at 37° C. under +TC or −TC conditions for 72 h. Then, 10 μL of MTT (5 mg/mL in PBS) were added and the cells were incubated for another 4 h. Cell medium was then removed, and the remaining formazan crystals produced by the cellular reduction of MTT were dissolved in DMSO. Absorbance at 570 nm was immediately recorded using a FlexStation® 3 plate reader (Molecular Devices, CA).

A further series concerns the target T1, Aβ42 (Homo sapiens, UniProt P05067).
T1 construct: purchased American Peptide, Inc. (Sunnyvale, Calif.)
The series can be described thus: Thioflavin T assay of Aβ42 fibril formation. Type of series: biochemical. The conditions noted are these: 10 μM compound, Aβ42 25 μm, 48 h, ThT; read-out: inhibition of the formation of Aβ42 fibrils. As to the method:
Briefly, 1 μL of each compound solution in DMSO (0.01 μM to 100 μM) was added to corresponding wells in a 96-well plate. Each concentration was prepared in independent triplicates and a solvent control was included. To each well, 9 μL of 25 μM Aβ42 in PBS (pH 7.4) was added, and then plates were incubated in dark at room temperature for 48 h. Next, 200 μL of a 5 μM ThT in 50 mM glycine solution (pH 8.0) was added to each well.

The conditions of series [2]: background statement; cited from earlier work.
The nature of series [3]: PAMPA-BBB passive diffusion model. The conditions noted are these: for Papp: PAMPA. As for the experimental part:
In the same assay, 10 commercial drugs with known CNS penetration were also tested as positive controls, and their experimental values were compared to reported values (Table 1).
In general terms: The PAMPA barrier holds no transporters, so it reflects passive diffusion.

In series [4] the test system is intracellular oxidative stress in MC65 cells. The series can be described thus: ROS production assay in MC65 cells (DCFH-DA). The format is cell-based. The conditions noted are these: −TC, 48 h, DCFH-DA 25 μM, read-out: IC50 for suppression of intracellular oxidative stress. As to the method: Cells were harvested, washed twice with cold PBS, then suspended in PBS and incubated with DCFH-DA (25 μM) in dark for 1 h. Fluorescence was analyzed by flow cytometry using a Millipore Guava® easyCyte flow cytometer.

For series [5], the system named is amyloid-β oligomers (AβOs) in MC65 cells. The series can be described thus: Western blot (6E10) of AβOs production in MC65 cells. The conditions noted are these: MC65 cells after removal of TC, 6E10 antibody. The format is cell-based. As for the experimental part:
MC65 cells (4×10^5 cells/mL) were treated with indicated compounds for 30 h and then were lysed by sonication in a Tricine buffer solution and boiled for 5 min. Protein samples were collected from the supernatant after centrifugation of the samples at 12,800×g for 5 min, and then quantified using the Bradford method. Equal amounts of protein (20.0 μg) were separated by SDS-PAGE on a gel (Bio-Rad) and transferred onto a PVDF membrane (Bio-Rad). The blots were blocked with 5% milk in TBS-Tween 20 (0.1%) solution at room temperature for 1 h and then probed with the 6E10 antibody overnight at 4° C. The blots were washed twice in TB S-Tween 20 for 15 min, and then incubated with a 1:1000 dilution of horseradish peroxidase-conjugated secondary antibody in a 5% milk/PBS-Tween 20 solution at room temperature for 1 h. After washing twice in TBS-Tween 20 for 15 min, the proteins were visualized by a Western Blot Chemiluminescence Reagent (Thermo Fischer Scientific, Waltham, Mass.). The blots were also probed with antibodies against α-tubulin to ensure equal loading of proteins.
(In general: In western blotting, separated proteins are transferred to a membrane and probed.)

A further series deals with HT22 cells. The series can be described thus: Hydrogen peroxide toxicity assay in HT22 cells. The conditions noted are these: 24 h. Type of series: cell-based, mouse. As for the experimental part: HT22 cells were seeded in 96-well plates (4×10^3 cells/well) in growth medium and incubated for 24 h at 37° C. The medium was removed and compounds were added at the indicated concentrations in fresh growth medium, and the cells were incubated for another 1 h. H2O2 was then added at a final concentration of 500 μM, and the plates were then incubated for 24 h. Cell viability was assessed by MTT assay as previously described. Values were expressed as a percentage relative to the negative (H2O2-free) control.

Series [6] concerns MC65 cells. The series can be described thus: Cytotoxicity in MC65 cells under normal growth conditions (+TC), MTT. The format is cell-based. The settings on record: 72 h. As to the method:
FIG. 7A-D. Effects on viability of TRO19622, Mito-TEMPO and 7 in MC65 cells. A. MC65 cells were treated with Mito-TEMPO or TRO-19622 at indicated concentrations under normal growth conditions (+TC) for 72 h. Cell viability was assessed by MTT assay. Data were expressed as mean percentage viability (n=3) with parallel +TC cultures set at 100% viability. Error bars represent SEM. B. MC65 cells were treated with Mito-TEMPO at indicated concentrations under −TC conditions for 72 h. Cell viability was assessed by MTT assay. Data were expressed as mean percentage viability (n=3) with parallel +TC cultures set at 100% viability. C. MC65 cells were treated with TRO-19622 at indicated concentrations under −TC conditions for 72 h. Cell viability was assessed by MTT assay. Data were expressed as mean percentage viability (n=3) with parallel +TC cultures set at 100% viability. D. MC65 cells were treated with 7 or Mito-TEMPO at indicated concentrations for 2 h before addition of rotenone for 48 h. Cell viability was assessed by MTT assay. Data were expressed as mean percentage viability (n=3) with parallel +TC cultures set at 100% viability. […]

Series [7] concerns MC65 cells. The series can be described thus: Rotenone protection assay in MC65 cells. Type of series: cell-based. The settings on record: 10 μM, 48 h. As for the experimental part:
The medium was removed and compounds were added at the indicated concentrations in fresh growth medium, and the cells were incubated for another 2 h. Rotenone was then added at a final concentration of 10 μM, and the plates were then incubated for 48 h. Cell viability was assessed by MTT assay.

T1 sequence (P05067 672-713 limits assumed): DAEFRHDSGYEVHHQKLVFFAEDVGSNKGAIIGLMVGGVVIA

Take `COc1ccc2[nH]cc(CCNC(=O)CC(=O)C=Cc3ccco3)c2c1` [AM4]: in the series with MC65 cells [1] (0.3 μM, −TC, 72 h, MTT), the “neuroprotection of MC65 cells from −TC induced cell death” value (“neuroprotection of MC65 cells” for short) is on record as “did not show neuroprotection”.

As to `COc1ccc2[nH]cc(CCNC(=O)CC(=O)C=Cc3ccoc3)c2c1` [AM5], the “protection compared to −TC control” value in the series on MC65 cells [1] (0.3 μM, −TC, 72 h) is listed as around 48%.

On to `COc1ccc2[nH]cc(CCNC(=O)CC(=O)C=Cc3ccncc3)c2c1` [AM6], for which, in the series with MC65 cells [1] (0.3 μM, −TC, 72 h), the “protection compared to −TC control” value was around 33%.

With `COc1ccc2[nH]cc(CCNC(=O)CC(=O)C=Cc3ccc(N(C)C)cc3)c2c1` [AM14], the “protection compared to −TC control” value in the series with MC65 cells [1] (0.3 μM, −TC, 72 h) is given as around 0.20%.

As to `COc1cc(/C=C/C(=O)CC(=O)/C=C/c2ccc(O)c(OC)c2)ccc1O` [Compound 1, Curcumin], the “neuroprotection of MC65 cells” value in the series with MC65 cells [1] (0.3 μM, −TC, 72 h, MTT) is recorded as “no neuroprotection”. In addition, the “neuroprotection at much higher concentrations (data not shown)” value with MC65 cells [1] (3 and 10 μM, −TC) was “moderate neuroprotection”. The inhibition at 10 µM at Aβ42 was 27.3%.

As to `COc1ccc2[nH]cc(CCNC(C)=O)c2c1` [Compound 2, Melatonin], in the series with MC65 cells [1] (0.3 μM, −TC, 72 h, MTT), the “neuroprotection of MC65 cells” value is “no neuroprotection”. Also, the half-life in series [2] is given as below 30 min.

In the case of `COc1ccc2[nH]cc(CCNC(=O)CC(=O)/C=C/c3ccc(O)c(OC)c3)c2c1` [Compound 3], the “increase in cell viability” value in the series on MC65 cells [1] (0.3 μM, −TC, 72 h) is around 61%. In the series with MC65 cells [1] (−TC conditions, 72 h, MTT), the 50% effective concentration (EC50) came to 134 ± 4.5 nM. For the same compound, in series [3] (PBS:EtOH (70:30), mean ± SD of 3 independent experiments), the “Permeability Pe (exp.)” value was 6.5 ± 0.6 10^−6 cm s^−1. Besides, in [3] (from Pe (exp.) and correlation with reported values), the “Prediction of penetration in the CNS” value is “CNS− (compounds with Pe<8.1×10^−6 cm s^−1 will have low BBB permeability by passive diffusion)”.

As to `COc1cccc(C=CC(=O)CC(=O)NCCc2c[nH]c3ccc(OC)cc23)c1` [Compound 4], the “neuroprotection of MC65 cells” value in the series with MC65 cells [1] (0.3 μM, −TC, 72 h, MTT) is on record as “complete loss of neuroprotection”.

On to `COc1ccc2[nH]cc(CCNC(=O)CC(=O)/C=C/c3ccc(O)cc3)c2c1` [Compound 5], for which, in the series with MC65 cells [1] (0.3 μM, −TC, 72 h, MTT), the “neuroprotection of MC65 cells” value is on record as “significant neuroprotection”. Also, in the series with MC65 cells [1] (MC65, 72 h), the EC50 was 23.1 ± 5.23 nM. Further, the IC50 in [4] is around 63 nM. In addition, in series [5], the “effect on the production of AβOs (tetramers, pentamers, heptamers)” value was “dose-dependently suppressed”. For the same compound, the Papp in series [3] amounted to 5.9 ± 0.4 ×10⁻⁶ cm/s.

`OO` [Compound H2O2, H2O2] gave an HT22 cell death with HT22 cells (500 μM) of around 58%.

Consider `CC1(C)CC(NC(=O)C[P+](c2ccccc2)(c2ccccc2)c2ccccc2)CC(C)(C)N1[O]` [Mito-TEMPO, reference compound], for which the “protection from −TC induced cytotoxicity” value in the series on MC65 cells [1] (indicated concentrations, maximum 10 μM, −TC, 72 h) is listed as “dose-dependently protected”. For the same compound, in the series on MC65 cells [6] (up to 10 μM), the “toxic effects in MC65 cells under +TC” value is “did not show toxic effects”.

Compound `CN1C(C(=O)Nc2ccccn2)=C(O)c2ccccc2S1(=O)=O` [Piroxicam, reference compound] showed a Papp in [3] of 6 ± 0.3 ×10⁻⁶ cm/s.

The compound `CN(C)CCCN1c2ccccc2Sc2ccccc21` [Promazine, reference compound] yielded a Papp in series [3] of 25.1 ± 1.4 ×10⁻⁶ cm/s.

Take `CC(C)CCC[C@@H](C)[C@H]1CC[C@H]2[C@@H]3CCC4=CC(=NO)CC[C@]4(C)[C@H]3CC[C@]12C` [TRO-19622, reference compound]: the “protection from −TC induced cytotoxicity” value in the series on MC65 cells [1] (up to 25 μM, −TC, 72 h) is “did not show significant protection”. In addition, in the series with MC65 cells [6] (up to 25 μM), the “cytotoxicity in MC65 cells under +TC” value was “did not show cytotoxicity”.

As for `Cc1c(C)c2c(c(C)c1O)CCC(C)(C(=O)O)O2` (centres unmarked) [Trolox, 6-hydroxy-2,5,7,8-tetramethyl chroman-2-carboxylic acid], the “protection from H2O2-induced cytotoxicity” value in the series on HT22 cells (300 μM, H2O2 500 μM) was “full rescue”.

Take `COc1ccc2[nH]cc(CCNC(=O)CC(=O)C=Cc3ccc4c(c3)OCO4)c2c1` [ZSJ-II-126]: the “neuroprotection of MC65 cells” value with MC65 cells [1] (0.3 μM, −TC, 72 h, MTT) is given as “diminished protection”.

As to `C=C(C)[C@H]1Cc2c(ccc3c2O[C@@H]2COc4cc(OC)c(OC)cc4[C@@H]2C3=O)O1` [rotenone, reference compound], the “cell death of MC65 cells” value with MC65 cells [7] was found to be 75.6%.
